Reference: paper PMC8217813, “Bridging Computational Vaccinology and Vaccine Development Through Systematic Identification, Characterization, and Downselection of Conserved and Variable Circumsporozoite Protein CD4 T Cell Epitopes From Diverse Plasmodium falciparum Strains” (Frontiers in Immunology, 2021)
pIC50: −log10 of the molar value. Read-outs that look alike come from different tables or passages of the source. Peptide text beside a SMILES is read from it.

Tests used:
HLA A*0101 = target: T1, HLA A*0101 (Homo sapiens, UniProt P04439, A114D/A174V/A182V/D101N/D185E/E176A/E190D/L180R/Q94H/R68K/S129P/T187R/V100A/V91M/W191G); experiment: biochemical; assay type: binding
T1 construct: Pure Protein, LLC (ran the assay)

HLA B*4402 = HLA B*4402 (Homo sapiens, UniProt P01889, A223V/A65T/A93T/A95T/D201E/D98Y/E176V/E187L/E204Q/E69K/G107R/H137Y/K202T/L105A/L119I/N104T/N87E/Q56L/Q94N/R106L/R155S/R180D/S101N/S121R/S35A/S48T/T118I/V36M/W191S/Y140D/Y91S); experiment: In vitro class I HLA binding competition assay (fluorescence polarization); settings: allele B4402; cell-free competition with fluorescently labeled control peptide, fluorescence polarization at 72 hours
Method: The cell-free class I HLA binding assay in use at Pure Protein, LLC allows for in vitro quantification of peptide-HLA binding affinity in a competition format. In this assay, a fluorescently labeled, high binding, control peptide is loaded onto 384-well ½-area plates along with unlabeled experimental peptides. To remove endogenous peptides and render the HLA A and B molecules receptive to binding, HLA is heated at 53°C for 15 minutes and immediately added to the assay. The mixture is then allowed to stand for three days. Once the mixture has reached steady equilibrium (at 72 hours), displacement of the high binding control peptide is measured through Fluorescence Polarization. Binding of experimental peptides is expressed as the percent inhibition of the labeled control peptide (experimental fluorescence / control fluorescence, multiplied by 100). The percent inhibition values for each experimental peptide (across a range of molar concentrations) are used to calculate the concentration which inhibits 50% of the labeled control peptide’s specific binding. This value is referred to as the peptide’s IC50.

[1] = system: CD4 T cells co-cultured with autologous DCs from PBMCs; assay type: cell-based, human; settings: positive = Stimulation Index ≥1.5-fold above baseline, 5 µg/mL peptide
[2] = allele A0101, cell-free competition with fluorescently labeled control peptide, fluorescence polarization at 72 hours
[3] = allele A0101, cell-free competition with fluorescently labeled control peptide, fluorescence polarization at 72 hours, read-out: IC50

NVDPNANPNV [Cluster 109_3D7]
IC50 (nM) (HLA A*0101; [2]): Non-Binder

CC[C@H](C)[C@H](NC(=O)[C@H](Cc1c[nH]cn1)NC(=O)[C@H](CCCCN)NC(=O)[C@H](CC(=O)O)NC(=O)[C@H](CO)NC(=O)[C@@H]1CCCN1)C(=O)N[C@@H](CCC(=O)O)C(=O)N[C@@H](CCC(N)=O)C(=O)N[C@@H](Cc1ccc(O)cc1)C(=O)O [Cluster 311_ICS7] (H-PSDKHIEQY-OH)
pIC50 (HLA A*0101): 5.70

TEWSPCSVT [Cluster 329_3D7]
IC50 (nM) (HLA B*4402): Non-Binder

CC(C)[C@H](NC(=O)[C@@H](N)CC(N)=O)C(=O)N[C@@H](CC(=O)O)C(=O)N[C@@H](CCC(=O)O)C(=O)N[C@@H](CC(N)=O)C(=O)N[C@@H](C)C(=O)N[C@@H](CC(N)=O)C(=O)N[C@@H](C)C(=O)N[C@@H](CC(N)=O)C(=O)N[C@@H](CC(N)=O)C(=O)O [Cluster 292_CVX337] (H-NVDENANANN-OH)
pIC50 (HLA A*0101; [3]): 3.18

CC[C@H](C)[C@H](NC(=O)[C@H](Cc1c[nH]cn1)NC(=O)[C@H](CCCCN)NC(=O)[C@H](CC(=O)O)NC(=O)[C@H](CO)NC(=O)[C@@H]1CCCN1)C(=O)N[C@H](C(=O)N[C@@H](CCC(=O)O)C(=O)N[C@@H](Cc1ccc(O)cc1)C(=O)O)[C@@H](C)O [Cluster 311_ICS2] (H-PSDKHITEY-OH)
pIC50 (HLA A*0101): 5.57

CSCC[C@H](N)C(=O)N[C@@H](CCC(=O)O)C(=O)N[C@@H](CCCCN)C(=O)N[C@@H](CS)C(=O)N[C@@H](CO)C(=O)N[C@@H](CO)C(=O)N[C@H](C(=O)N[C@@H](Cc1ccccc1)C(=O)N[C@@H](CC(N)=O)C(=O)O)C(C)C [Cluster 371_3D7] (H-MEKCSSVFN-OH)
pIC50 (HLA B*4402): 3.85

CC(C)[C@H](NC(=O)[C@H](CO)NC(=O)[C@H](CO)NC(=O)[C@@H](N)CS)C(=O)N[C@@H](Cc1ccccc1)C(=O)N[C@@H](CC(N)=O)C(=O)N[C@H](C(=O)N[C@H](C(=O)N[C@@H](CC(N)=O)C(=O)O)C(C)C)C(C)C [Cluster 374_3D7] (H-CSSVFNVVN-OH)
pIC50 (HLA A*0101; [3]): 4.08

CC[C@H](C)[C@H](NC(=O)[C@H](CO)NC(=O)[C@H](CO)NC(=O)[C@@H](N)CC(N)=O)C(=O)NCC(=O)N[C@@H](CC(C)C)C(=O)N[C@H](C(=O)N[C@@H](CCSC)C(=O)N[C@H](C(=O)O)C(C)C)[C@@H](C)CC [Cluster 382_3D7] (H-NSSIGLIMV-OH)
pIC50 (HLA A*0101; [3]): 3.67

CC(C)C[C@H](NC(=O)[C@H](CCC(N)=O)NC(=O)[C@H](CC(=O)O)NC(=O)[C@H](CCCCN)NC(=O)[C@@H]1CCCN1C(=O)[C@H](CCCCN)NC(=O)[C@H](CC(=O)O)NC(=O)[C@H](C)NC(=O)[C@@H](N)CO)C(=O)N[C@@H](CC(=O)O)C(=O)O [Cluster 350_CVX65] (H-SADKPKDQLD-OH)
pIC50 (HLA A*0101; [3]): 5.05

DQHIEQYLKKIQNSISTEWS [ICS3]
Percentage of donors demonstrating IFN-γ responses, DR1 ([1]; DR1 donors N=5, ICCS after 14-day co-culture): 80%
Percentage of donors demonstrating IL-2 responses, DR1 ([1]; DR1 donors N=5, ICCS): 80%
Percentage of donors demonstrating IL-4 responses, DR1 ([1]; DR1 donors N=5, ICCS): 0%
Percentage of donors demonstrating IL-10 responses, DR1 ([1]; DR1 donors N=5, ICCS): 20%
Percentage of donors demonstrating TNF-α responses, DR1 ([1]; DR1 donors N=5, ICCS): 60%
Percentage of donors demonstrating IFN-γ responses, DR3 ([1]; DR3 donors N=6, ICCS after 14-day co-culture): 33%
Percentage of donors demonstrating IL-2 responses, DR3 ([1]; DR3 donors N=6, ICCS): 0%
Percentage of donors demonstrating IL-4 responses, DR3 ([1]; DR3 donors N=6, ICCS): 17%
Percentage of donors demonstrating IL-10 responses, DR3 ([1]; DR3 donors N=6, ICCS): 17%
Percentage of donors demonstrating TNF-α responses, DR3 ([1]; DR3 donors N=6, ICCS): 0%
Percentage of donors demonstrating IFN-γ responses, DR4 ([1]; DR4 donors N=10, ICCS after 14-day co-culture): 30%
Percentage of donors demonstrating IL-2 responses, DR4 ([1]; DR4 donors N=10, ICCS): 40%
Percentage of donors demonstrating IL-4 responses, DR4 ([1]; DR4 donors N=10, ICCS): 10%
Percentage of donors demonstrating IL-10 responses, DR4 ([1]; DR4 donors N=10, ICCS): 0%
Percentage of donors demonstrating TNF-α responses, DR4 ([1]; DR4 donors N=10, ICCS): 40%
Percentage of donors demonstrating IFN-γ responses, DR7 ([1]; DR7 donors N=4, ICCS after 14-day co-culture): 75%
Percentage of donors demonstrating IL-2 responses, DR7 ([1]; DR7 donors N=4, ICCS): 50%
Percentage of donors demonstrating IL-4 responses, DR7 ([1]; DR7 donors N=4, ICCS): 0%
Percentage of donors demonstrating IL-10 responses, DR7 ([1]; DR7 donors N=4, ICCS): 0%
Percentage of donors demonstrating TNF-α responses, DR7 ([1]; DR7 donors N=4, ICCS): 50%
Percentage of donors demonstrating IFN-γ responses, DR8 ([1]; DR8 donors N=4, ICCS after 14-day co-culture): 0%
Percentage of donors demonstrating IL-2 responses, DR8 ([1]; DR8 donors N=4, ICCS): 0%
Percentage of donors demonstrating IL-4 responses, DR8 ([1]; DR8 donors N=4, ICCS): 0%
Percentage of donors demonstrating IL-10 responses, DR8 ([1]; DR8 donors N=4, ICCS): 0%
Percentage of donors demonstrating TNF-α responses, DR8 ([1]; DR8 donors N=4, ICCS): 25%
Percentage of donors demonstrating IFN-γ responses, DR9 ([1]; DR9 donors N=4, ICCS after 14-day co-culture): 0%
Percentage of donors demonstrating IL-2 responses, DR9 ([1]; DR9 donors N=4, ICCS): 0%
Percentage of donors demonstrating IL-4 responses, DR9 ([1]; DR9 donors N=4, ICCS): 0%
Percentage of donors demonstrating IL-10 responses, DR9 ([1]; DR9 donors N=4, ICCS): 0%
Percentage of donors demonstrating TNF-α responses, DR9 ([1]; DR9 donors N=4, ICCS): 25%
Percentage of donors demonstrating IFN-γ responses, DR11 ([1]; DR11 donors N=4, ICCS after 14-day co-culture): 25%
Percentage of donors demonstrating IL-2 responses, DR11 ([1]; DR11 donors N=4, ICCS): 25%
Percentage of donors demonstrating IL-4 responses, DR11 ([1]; DR11 donors N=4, ICCS): 0%
Percentage of donors demonstrating IL-10 responses, DR11 ([1]; DR11 donors N=4, ICCS): 0%
Percentage of donors demonstrating TNF-α responses, DR11 ([1]; DR11 donors N=4, ICCS): 50%
Percentage of donors demonstrating IFN-γ responses, DR13 ([1]; DR13 donors N=7, ICCS after 14-day co-culture): 0%
Percentage of donors demonstrating IL-2 responses, DR13 ([1]; DR13 donors N=7, ICCS): 0%
Percentage of donors demonstrating IL-4 responses, DR13 ([1]; DR13 donors N=7, ICCS): 0%
Percentage of donors demonstrating IL-10 responses, DR13 ([1]; DR13 donors N=7, ICCS): 0%
Percentage of donors demonstrating TNF-α responses, DR13 ([1]; DR13 donors N=7, ICCS): 14%
Percentage of donors demonstrating IFN-γ responses, DR15 ([1]; DR15 donors N=7, ICCS after 14-day co-culture): 14%
Percentage of donors demonstrating IL-2 responses, DR15 ([1]; DR15 donors N=7, ICCS): 14%
Percentage of donors demonstrating IL-4 responses, DR15 ([1]; DR15 donors N=7, ICCS): 0%
Percentage of donors demonstrating IL-10 responses, DR15 ([1]; DR15 donors N=7, ICCS): 14%
Percentage of donors demonstrating TNF-α responses, DR15 ([1]; DR15 donors N=7, ICCS): 29%

LSTEWSPCS [327_3D7 (9)]
IC50 (nM) (HLA A*0101; [2]): Non-Binder

NEEPSDQHI [Cluster 308_CVX99]
IC50 (nM) (HLA B*4402): Non-Binder

C[C@H](NC(=O)[C@H](CC(N)=O)NC(=O)[C@H](CC(N)=O)NC(=O)[C@H](C)NC(=O)[C@H](CC(N)=O)NC(=O)[C@H](C)NC(=O)[C@H](CC(N)=O)NC(=O)[C@H](CCC(=O)O)NC(=O)[C@@H](N)CC(=O)O)C(=O)O [Cluster 294_CVX311] (H-DENANANNA-OH)
pIC50 (HLA B*4402): 3.05

CC[C@H](C)[C@H](NC(=O)[C@H](Cc1c[nH]cn1)NC(=O)[C@H](CCCCN)NC(=O)[C@H](CC(=O)O)NC(=O)[C@H](CO)NC(=O)[C@@H]1CCCN1)C(=O)N[C@@H](CCCCN)C(=O)N[C@@H](CCC(=O)O)C(=O)N[C@@H](Cc1ccc(O)cc1)C(=O)O [CL1-62] (H-PSDKHIKEY-OH)
pIC50 (HLA A*0101; [3]): 4.60

CC[C@H](C)[C@H](NC(=O)[C@H](CC(=O)O)NC(=O)[C@H](CC(N)=O)NC(=O)[C@H](C)NC(=O)[C@H](Cc1ccc(O)cc1)NC(=O)[C@H](CC(=O)O)NC(=O)[C@H](CC(C)C)NC(=O)[C@H](CCC(=O)O)NC(=O)[C@@H](N)CC(=O)O)C(=O)O [Cluster 356_3D7] (H-DELDYANDI-OH)
pIC50 (HLA B*4402): 3.56

NVDENANAN [Cluster 292_3D7]
IC50 (nM) (HLA A*0101; [2]): Non-Binder

CC(C)[C@H](NC(=O)[C@H](CO)NC(=O)[C@H](CS)NC(=O)[C@@H]1CCCN1C(=O)[C@H](CO)NC(=O)[C@H](Cc1c[nH]c2ccccc12)NC(=O)[C@H](CCC(=O)O)NC(=O)[C@@H](NC(=O)[C@@H](N)CO)[C@@H](C)O)C(=O)O [Cluster 328_3D7] (H-STEWSPCSV-OH)
pIC50 (HLA A*0101; [3]): 5.50

ELDYENDIEK [Cluster 357_CVX154]
IC50 (nM) (HLA A*0101; [2]): Non-Binder
